# pIC50: −log10 of the molar value. Active and inactive are the calls of the source. The rule behind the calls is not given here.
# Key:
# [1] = target: Sucrase-isomaltase, intestinal (Rattus norvegicus) (UniProt P23739); assay: Inhibition of rat intestinal sucrase using sucrose as substrate at 10 mg/ml preincubated for 10 mins before substrate addition by glucose oxidase method
# [2] = target: Lysosomal alpha-glucosidase (Rattus norvegicus) (UniProt Q6P7A9); assay: Inhibition of rat intestinal maltase using maltose as substrate at 10 mg/ml preincubated for 10 mins before substrate addition by glucose oxidase method
# Saccharomyces cerevisiae = assay: Inhibition of bakers yeast alpha-glucosidase using p-nitrophenyl-(alpha-D-glucopyranoside) as substrate at 10 mg/ml preincubated for 10 mins before substrate addition by microplate reader
# [3] = Inhibition of bakers yeast alpha-glucosidase using p-nitrophenyl-(alpha-D-glucopyranoside) as substrate preincubated for 10 mins before substrate addition by microplate reader; parameters: species or system Saccharomyces cerevisiae
# [4] = target: Lysosomal alpha-glucosidase (Rattus norvegicus) (UniProt Q6P7A9); conditions: 0.1 to 1 mg/ml
# Description: Mixed type inhibition of rat intestinal maltase using maltose as substrate at 0.1 to 1 mg/ml
# [5] = target: Lysosomal alpha-glucosidase (Rattus norvegicus) (UniProt Q6P7A9); conditions: 0.1 to 1 mg/ml; remark: listed apart in the source
# Description: Non-competitive inhibition of rat intestinal maltase using maltose as substrate assessed as enzyme-substrate-inhibitor complex formation at 0.1 to 1 mg/ml by Lineweaver-Burk plot analysis
# [6] = target: Lysosomal alpha-glucosidase (Rattus norvegicus) (UniProt Q6P7A9); conditions: 0.1 to 1 mg/ml; remark: listed apart in the source
# Lysosomal alpha-glucosidase (Rattus norvegicus), sequence (Q6P7A9 whole entry): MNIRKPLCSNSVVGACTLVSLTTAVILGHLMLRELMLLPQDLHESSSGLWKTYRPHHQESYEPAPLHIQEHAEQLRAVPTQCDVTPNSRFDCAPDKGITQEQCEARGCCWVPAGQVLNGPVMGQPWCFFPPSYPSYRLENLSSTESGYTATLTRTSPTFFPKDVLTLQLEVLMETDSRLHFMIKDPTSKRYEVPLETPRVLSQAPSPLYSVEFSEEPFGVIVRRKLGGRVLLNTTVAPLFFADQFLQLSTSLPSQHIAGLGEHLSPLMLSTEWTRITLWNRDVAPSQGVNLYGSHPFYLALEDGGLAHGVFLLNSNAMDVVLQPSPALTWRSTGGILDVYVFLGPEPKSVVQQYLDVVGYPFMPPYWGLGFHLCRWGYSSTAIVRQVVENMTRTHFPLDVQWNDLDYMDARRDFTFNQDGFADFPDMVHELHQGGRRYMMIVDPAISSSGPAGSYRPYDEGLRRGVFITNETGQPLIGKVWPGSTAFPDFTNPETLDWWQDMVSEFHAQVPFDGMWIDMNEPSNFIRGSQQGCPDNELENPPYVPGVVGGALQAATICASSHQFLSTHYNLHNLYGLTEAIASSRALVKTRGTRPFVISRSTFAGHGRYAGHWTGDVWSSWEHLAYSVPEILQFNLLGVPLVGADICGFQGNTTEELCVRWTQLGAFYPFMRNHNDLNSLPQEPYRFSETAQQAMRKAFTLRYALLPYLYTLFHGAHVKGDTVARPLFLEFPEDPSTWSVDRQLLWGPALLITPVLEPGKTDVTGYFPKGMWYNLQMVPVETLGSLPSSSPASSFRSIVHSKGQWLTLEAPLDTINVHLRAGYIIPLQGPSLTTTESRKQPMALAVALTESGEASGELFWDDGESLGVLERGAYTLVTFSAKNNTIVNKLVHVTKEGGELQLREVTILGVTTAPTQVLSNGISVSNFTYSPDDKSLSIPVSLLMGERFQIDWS
# Sucrase-isomaltase, intestinal (Rattus norvegicus), sequence (P23739 1-1013 limits assumed): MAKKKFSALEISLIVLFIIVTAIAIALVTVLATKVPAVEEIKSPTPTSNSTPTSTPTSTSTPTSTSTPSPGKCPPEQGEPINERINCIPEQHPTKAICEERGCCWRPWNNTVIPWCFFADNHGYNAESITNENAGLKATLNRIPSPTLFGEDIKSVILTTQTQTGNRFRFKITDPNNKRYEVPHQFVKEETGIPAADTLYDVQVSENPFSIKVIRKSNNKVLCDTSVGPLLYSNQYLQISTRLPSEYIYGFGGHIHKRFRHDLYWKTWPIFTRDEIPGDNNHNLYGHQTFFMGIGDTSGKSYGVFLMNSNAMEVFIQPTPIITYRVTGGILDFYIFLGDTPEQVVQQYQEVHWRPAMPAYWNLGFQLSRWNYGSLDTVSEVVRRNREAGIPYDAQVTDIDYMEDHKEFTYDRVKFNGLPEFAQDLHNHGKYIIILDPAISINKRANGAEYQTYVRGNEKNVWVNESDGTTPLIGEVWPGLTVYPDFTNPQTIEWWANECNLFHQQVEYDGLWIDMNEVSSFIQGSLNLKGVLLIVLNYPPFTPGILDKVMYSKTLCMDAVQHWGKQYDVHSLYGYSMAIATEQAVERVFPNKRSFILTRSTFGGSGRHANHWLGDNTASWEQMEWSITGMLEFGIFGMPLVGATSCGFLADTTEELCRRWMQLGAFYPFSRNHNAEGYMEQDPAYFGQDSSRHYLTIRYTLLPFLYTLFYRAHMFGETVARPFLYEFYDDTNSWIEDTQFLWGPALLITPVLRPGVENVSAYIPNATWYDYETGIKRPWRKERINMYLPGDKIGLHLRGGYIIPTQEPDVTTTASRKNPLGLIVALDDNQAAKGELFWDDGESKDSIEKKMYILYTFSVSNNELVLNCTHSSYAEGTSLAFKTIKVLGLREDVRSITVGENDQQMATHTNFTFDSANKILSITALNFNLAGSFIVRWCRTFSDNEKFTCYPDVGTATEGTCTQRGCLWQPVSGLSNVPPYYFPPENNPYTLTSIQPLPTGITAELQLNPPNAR
# Sucrase-isomaltase, intestinal (Rattus norvegicus), sequence (P23739 1014-1841 limits assumed): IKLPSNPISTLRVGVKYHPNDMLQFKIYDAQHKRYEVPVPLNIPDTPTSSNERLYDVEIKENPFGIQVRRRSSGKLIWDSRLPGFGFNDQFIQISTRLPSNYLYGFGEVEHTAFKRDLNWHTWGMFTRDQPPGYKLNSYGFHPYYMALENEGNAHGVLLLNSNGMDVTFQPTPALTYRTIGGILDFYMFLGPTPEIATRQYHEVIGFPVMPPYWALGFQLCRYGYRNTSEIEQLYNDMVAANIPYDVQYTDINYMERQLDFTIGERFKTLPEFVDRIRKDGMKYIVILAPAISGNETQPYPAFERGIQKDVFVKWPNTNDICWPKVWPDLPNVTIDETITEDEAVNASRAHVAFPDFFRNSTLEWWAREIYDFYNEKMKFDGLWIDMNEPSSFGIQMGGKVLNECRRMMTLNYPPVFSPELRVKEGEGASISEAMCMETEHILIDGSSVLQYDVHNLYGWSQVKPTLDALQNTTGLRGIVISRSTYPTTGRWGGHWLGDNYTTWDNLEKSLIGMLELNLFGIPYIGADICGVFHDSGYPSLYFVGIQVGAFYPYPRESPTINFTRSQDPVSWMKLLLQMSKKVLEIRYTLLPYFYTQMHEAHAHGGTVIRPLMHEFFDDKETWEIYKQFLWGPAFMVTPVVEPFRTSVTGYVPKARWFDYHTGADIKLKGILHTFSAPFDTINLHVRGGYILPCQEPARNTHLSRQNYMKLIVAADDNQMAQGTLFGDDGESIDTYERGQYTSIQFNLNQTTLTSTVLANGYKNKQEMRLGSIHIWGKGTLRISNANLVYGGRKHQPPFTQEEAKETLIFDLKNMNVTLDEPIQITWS
Compound,inhibition [1] [%],inhibition [2] [%],inhibition (Saccharomyces cerevisiae) [%],pIC50 [3],inhibition [4],inhibition [5],inhibition [6]
OC[C@H]1O[C@@H](Oc2cc3c(cc2[C@H]2OC[C@H]4[C@@H]2CO[C@@H]4c2ccc4c(c2)OCO4)OCO3)[C@H](O)[C@@H](O)[C@@H]1O,< 30,< 30,< 30,–,–,–,–
COc1cc([C@@H]2OC[C@@H]3[C@H]2CO[C@H]3c2ccc(O)c(OC)c2)ccc1O [(+)-PINORESINOL],< 30,–,–,3.31,Active,Active,Active
c1cc2c(cc1[C@H]1OC[C@H]3[C@@H]1CO[C@@H]3c1ccc3c(c1)OCO3)OCO2 [SESAMIN],< 30,< 30,–,3.35,–,–,–
c1cc2c(cc1O[C@H]1OC[C@H]3[C@@H]1CO[C@@H]3c1ccc3c(c1)OCO3)OCO2 [SESAMOLIN],< 30,< 30,–,3.70,–,–,–

# From ChEMBL document CHEMBL2057111, “(+)-Pinoresinol is a putative hypoglycemic agent in defatted sesame (Sesamum indicum) seeds though inhibiting α-glucosidase” (Bioorg Med Chem Lett, 2012)
